Laboratory results published in patent US20100105655A1, “NOVEL COMPOUNDS 515” (ASTRAZENECA AB, priority 2008, published 2010).

Biological target: T1, IGFR kinase (Homo sapiens, UniProt P08069)
T1 construct: purchased Millipore
Test: Enzyme assay (c), IGFR kinase, Caliper LabChip
Type: biochemical
Settings: 30 nM IGFR kinase, 6 uM ATP, 3 uM peptide mix; read-out: IGFR IC50

T1 sequence (P08069 31-1367): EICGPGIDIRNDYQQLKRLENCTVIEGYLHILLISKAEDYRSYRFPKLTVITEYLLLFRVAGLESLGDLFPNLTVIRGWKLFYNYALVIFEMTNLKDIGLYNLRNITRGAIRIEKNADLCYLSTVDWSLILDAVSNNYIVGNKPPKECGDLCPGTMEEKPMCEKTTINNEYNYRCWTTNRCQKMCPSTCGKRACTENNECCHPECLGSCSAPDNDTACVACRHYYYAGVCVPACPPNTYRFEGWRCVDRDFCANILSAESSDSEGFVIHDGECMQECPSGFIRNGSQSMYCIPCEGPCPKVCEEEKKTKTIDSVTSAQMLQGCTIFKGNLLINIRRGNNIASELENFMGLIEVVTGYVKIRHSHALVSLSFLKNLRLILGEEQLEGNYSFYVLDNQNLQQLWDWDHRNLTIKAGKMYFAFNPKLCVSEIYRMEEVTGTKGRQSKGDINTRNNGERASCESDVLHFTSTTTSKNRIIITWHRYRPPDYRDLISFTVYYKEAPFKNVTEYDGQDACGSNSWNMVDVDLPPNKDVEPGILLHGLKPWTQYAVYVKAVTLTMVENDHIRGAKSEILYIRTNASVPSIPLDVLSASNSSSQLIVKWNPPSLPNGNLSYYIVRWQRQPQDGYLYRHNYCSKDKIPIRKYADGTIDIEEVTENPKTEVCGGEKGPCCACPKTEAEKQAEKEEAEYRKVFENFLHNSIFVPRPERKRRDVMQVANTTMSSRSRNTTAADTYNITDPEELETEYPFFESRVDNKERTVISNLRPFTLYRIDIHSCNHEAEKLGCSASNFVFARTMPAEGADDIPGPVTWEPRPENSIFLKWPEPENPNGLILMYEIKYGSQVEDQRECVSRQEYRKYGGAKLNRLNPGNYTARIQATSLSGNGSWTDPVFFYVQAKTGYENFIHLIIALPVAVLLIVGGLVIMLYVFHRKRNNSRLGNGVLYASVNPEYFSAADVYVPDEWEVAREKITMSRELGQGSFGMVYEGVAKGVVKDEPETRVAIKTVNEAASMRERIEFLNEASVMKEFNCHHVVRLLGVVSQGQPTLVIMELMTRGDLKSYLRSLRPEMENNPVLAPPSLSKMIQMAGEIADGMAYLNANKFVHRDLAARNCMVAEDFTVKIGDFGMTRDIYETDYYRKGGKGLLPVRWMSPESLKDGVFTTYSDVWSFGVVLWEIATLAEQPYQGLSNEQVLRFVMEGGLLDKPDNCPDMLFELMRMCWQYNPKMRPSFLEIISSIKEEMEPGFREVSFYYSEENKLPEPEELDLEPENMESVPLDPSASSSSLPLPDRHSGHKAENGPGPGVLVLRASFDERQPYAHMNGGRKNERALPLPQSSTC

Structure (SMILES)	IC50 [nM]
COc1cc(OC2CN(C[C@H](C)O)C2)ccc1Nc1ncc(Cl)c(-c2cnc3ccccn23)n1 [Example 61, (2S)-1-[3-[4-[(5-chloro-4-imidazo[1,2-a]pyridin-3-yl-pyrimidin-2-yl)amino]-3-methoxy-phenoxy]azetidin-1-yl]propan-2-ol]	21
CNCC(=O)N1CCc2cc(OC)c(Nc3ncc(Cl)c(-c4cnn5ccccc45)n3)cc21 [Example 156, 1-[6-[(5-chloro-4-pyrazolo[1,5-a]pyridin-3-yl-pyrimidin-2-yl)amino]-5-methoxy-indolin-1-yl]-2-(methylamino)ethanone]	4
COc1cc(N2CCNCC2)ccc1Nc1ncc(F)c(-c2cnc3ccccn23)n1 [Example 73, 5-fluoro-4-imidazo[1,2-a]pyridin-3-yl-N-(2-methoxy-4-piperazin-1-yl-phenyl)pyrimidin-2-amine]	71
COc1cc(C(=O)N2CCNCC2)ccc1Nc1ncc(Cl)c(-c2cnc3ccccn23)n1 [Example 30, [4-[(5-chloro-4-imidazo[1,2-a]pyridin-3-yl-pyrimidin-2-yl)amino]-3-methoxy-phenyl]-piperazin-1-yl-methanone]	33
CNCC(=O)N1CCC(c2ccc(Nc3ncc(F)c(-c4cnn5ccccc45)n3)c(OC)c2)CC1 [Example 238, 1-[4-[4-[(5-fluoro-4-pyrazolo[1,5-a]pyridin-3-yl-pyrimidin-2-yl)amino]-3-methoxy-phenyl]-1-piperidyl]-2-(methylamino)ethanone]	8
COc1cc(C2CCN(C(=O)[C@@H](C)O)CC2)ccc1Nc1ncc(C)c(-c2cnn3ccccc23)n1 [Example 164, (2R)-2-hydroxy-1-[4-[3-methoxy-4-[(5-methyl-4-pyrazolo[1,5-a]pyridin-3-yl-pyrimidin-2-yl)amino]phenyl]-1-piperidyl]propan-1-one]	15
COc1cc(N2CCN(C(C)=O)CC2)ccc1Nc1ncc(C#N)c(-c2cnc3ccccn23)n1 [Example 118, 2-[[4-(4-acetylpiperazin-1-yl)-2-methoxy-phenyl]amino]-4-imidazo[1,2-a]pyridin-3-yl-pyrimidine-5-carbonitrile]	92
COc1cc(N(C)CCN(C)C(=O)CO)ccc1Nc1ncc(Cl)c(-c2cnc3c(F)cccn23)n1 [Example 220, N-[2-[4-[[5-chloro-4-(8-fluoroimidazo[1,2-a]pyridin-3-yl)pyrimidin-2-yl]amino]-3-methoxy-N-methyl-anilino]ethyl]-2-hydroxy-N-methyl-acetamide]	5
COc1cc(OC2CCN(C(C)=O)CC2)ccc1Nc1ncc(C(F)(F)F)c(-c2cnc3ccccn23)n1 [Example 110, 1-[4-[4-[[4-imidazo[1,2-a]pyridin-3-yl-5-(trifluoromethyl)pyrimidin-2-yl]amino]-3-methoxy-phenoxy]-1-piperidyl]ethanone]	36
COc1cc(N2CCN(CCO)[C@@H](C)C2)ccc1Nc1ncc(F)c(-c2cnc3ccccn23)n1 [Example 273, 2-[(2S)-4-[4-[(5-fluoro-4-imidazo[1,2-a]pyridin-3-yl-pyrimidin-2-yl)amino]-3-methoxy-phenyl]-2-methyl-piperazin-1-yl]ethanol]	210
COc1cc(N2CC3CN(CCO)CC(C2)O3)ccc1Nc1ncc(Cl)c(-c2cnn3ccccc23)n1 [Example 150, 2-[7-[4-[(5-chloro-4-pyrazolo[1,5-a]pyridin-3-yl-pyrimidin-2-yl)amino]-3-methoxy-phenyl]-9-oxa-3,7-diazabicyclo[3.3.1]nonan-3-yl]ethanol]	5
COc1cc(N2CC[C@H](O)C2)ccc1Nc1ncc(F)c(-c2cnc3ccccn23)n1 [Example 83, (3S)-1-[4-[(5-fluoro-4-imidazo[1,2-a]pyridin-3-yl-pyrimidin-2-yl)amino]-3-methoxy-phenyl]pyrrolidin-3-ol]	167
COc1cc(N2CCN(C(C)(C)CO)CC2)ccc1Nc1ncc(F)c(-c2cnc3ccccn23)n1 [Example 228, 2-[4-[4-[(5-fluoro-4-imidazo[1,2-a]pyridin-3-yl-pyrimidin-2-yl)amino]-3-methoxy-phenyl]piperazin-1-yl]-2-methyl-propan-1-ol]	24
COc1cc(OC2CN(C(=O)N(C)C)C2)ccc1Nc1ncc(Cl)c(-c2cnc3ccccn23)n1 [Example 69, 3-[4-[(5-chloro-4-imidazo[1,2-a]pyridin-3-yl-pyrimidin-2-yl)amino]-3-methoxy-phenoxy]-N,N-dimethyl-azetidine-1-carboxamide]	32
COc1cc(N2CC3CN(C(=O)CN)CC(C2)O3)ccc1Nc1ncc(Cl)c(-c2cnc3c(F)cccn23)n1 [Example 209, 2-amino-1-[7-[4-[[5-chloro-4-(8-fluoroimidazo[1,2-a]pyridin-3-yl)pyrimidin-2-yl]amino]-3-methoxy-phenyl]-9-oxa-3,7-diazabicyclo[3.3.1]nonan-3-yl]ethanone]	30
CCC(=O)N1CCN(c2ccc(Nc3ncc(Cl)c(-c4cnc5ccccn45)n3)c(OC)c2)CC1 [Example 42, 1-[4-[4-[(5-chloro-4-imidazo[1,2-a]pyridin-3-yl-pyrimidin-2-yl)amino]-3-methoxy-phenyl]piperazin-1-yl]propan-1-one]	18
COc1cc(C2CCN(C(C)=O)CC2)ccc1Nc1ncc(C)c(-c2cnn3ccccc23)n1 [Example 233, 1-[4-[3-methoxy-4-[(5-methyl-4-pyrazolo[1,5-a]pyridin-3-yl-pyrimidin-2-yl)amino]phenyl]-1-piperidyl]ethanone]	9
COc1cc(N2CCN(C(C)(C)CO)CC2)ccc1Nc1ncc(C)c(-c2cnc3ccccn23)n1 [Example 229, 2-[4-[4-[(4-imidazo[1,2-a]pyridin-3-yl-5-methyl-pyrimidin-2-yl)amino]-3-methoxy-phenyl]piperazin-1-yl]-2-methyl-propan-1-ol]	20
COc1cc(C2CCN(C(C)=O)CC2)ccc1Nc1ncc(C)c(-c2cnc3ccccn23)n1 [Example 99, 1-[4-[4-[(4-imidazo[1,2-a]pyridin-3-yl-5-methyl-pyrimidin-2-yl)amino]-3-methoxy-phenyl]-1-piperidyl]ethanone]	24
CNCC(=O)N1CCN(c2ccc(OC)c(Nc3ncc(Cl)c(-c4cnc5ccccn45)n3)c2)CC1 [Example 145, 1-[4-[3-[(5-chloro-4-imidazo[1,2-a]pyridin-3-yl-pyrimidin-2-yl)amino]-4-methoxy-phenyl]piperazin-1-yl]-2-(methylamino)ethanone]	59

Further lines, results first:

IC50 [nM]	Structure (SMILES)
14	COc1cc(OC2CN(C(=O)[C@@H](C)O)C2)ccc1Nc1ncc(Cl)c(-c2cnc3ccccn23)n1 [Example 27.6, (2R)-1-[3-[4-[(5-chloro-4-imidazo[1,2-a]pyridin-3-yl-pyrimidin-2-yl)amino]-3-methoxy-phenoxy]azetidin-1-yl]-2-hydroxy-propan-1-one]
6	CNC(=O)C1CC(c2ccc(Nc3ncc(Cl)c(-c4cnc5ccccn45)n3)c(OC)c2)CN1 (stereo not shown) [Example 3.27, 4-[4-[(5-chloro-4-imidazo[1,2-a]pyridin-3-yl-pyrimidin-2-yl)amino]-3-methoxy-phenyl]-N-methyl-pyrrolidine-2-carboxamide]
6	COc1cc(N2CCN(C(=O)N3CCNCC3)CC2)ccc1Nc1ncc(Cl)c(-c2cnc3ccccn23)n1 [Example 47.3, [4-[4-[(5-chloro-4-imidazo[1,2-a]pyridin-3-yl-pyrimidin-2-yl)amino]-3-methoxy-phenyl]piperazin-1-yl]-piperazin-1-yl-methanone]
12	CC(=O)N1CCN(c2ccc(Nc3ncc(Cl)c(-c4cnc5ccccn45)n3)c(C)c2)CC1 [Example 3.30, 1-[4-[4-[(5-chloro-4-imidazo[1,2-a]pyridin-3-yl-pyrimidin-2-yl)amino]-3-methyl-phenyl]piperazin-1-yl]ethanone]
13	COc1cc(N2CCN(C(=O)CNC(C)=O)CC2)ccc1Nc1ncc(Cl)c(-c2cnc3ccccn23)n1 [Example 25.2, N-[2-[4-[4-[(5-chloro-4-imidazo[1,2-a]pyridin-3-yl-pyrimidin-2-yl)amino]-3-methoxy-phenyl]piperazin-1-yl]-2-oxo-ethyl]acetamide]
16	COc1cc(C(C)C(=O)N2CCN(CCO)CC2)ccc1Nc1ncc(Cl)c(-c2cnc3ccccn23)n1 (stereo not shown) [Example 3.41, 2-[4-[(5-chloro-4-imidazo[1,2-a]pyridin-3-yl-pyrimidin-2-yl)amino]-3-methoxy-phenyl]-1-[4-(2-hydroxyethyl)piperazin-1-yl]propan-1-one]
20	COc1cc(CNCCCO)ccc1Nc1ncc(Cl)c(-c2cnc3ccccn23)n1 [Example 21.3, 3-[[4-[(5-chloro-4-imidazo[1,2-a]pyridin-3-yl-pyrimidin-2-yl)amino]-3-methoxy-phenyl]methylamino]propan-1-ol]
11	COc1cc(N2CCN(CC(=O)N3CCOCC3)CC2)ccc1Nc1ncc(Cl)c(-c2cnc3ccccn23)n1 [Example 3.3, 2-[4-[4-[(5-chloro-4-imidazo[1,2-a]pyridin-3-yl-pyrimidin-2-yl)amino]-3-methoxy-phenyl]piperazin-1-yl]-1-morpholino-ethanone]
26	COc1cc(CN2CCN(C(C)=O)CC2)ccc1Nc1ncc(Cl)c(-c2cnc3ccccn23)n1 [Example 21.6, 1-[4-[[4-[(5-chloro-4-imidazo[1,2-a]pyridin-3-yl-pyrimidin-2-yl)amino]-3-methoxy-phenyl]methyl]piperazin-1-yl]ethanone]
6	COc1cc(N2CCN(C(=O)[C@@H]3CCCCN3)CC2)ccc1Nc1ncc(Cl)c(-c2cnc3ccccn23)n1 [Example 24.2, [4-[4-[(5-chloro-4-imidazo[1,2-a]pyridin-3-yl-pyrimidin-2-yl)amino]-3-methoxy-phenyl]piperazin-1-yl]-[(2S)-2-piperidyl]methanone]
6	COc1cc(N2CCN(C(=O)[C@H](N)CO)CC2)ccc1Nc1ncc(Cl)c(-c2cnc3ccccn23)n1 [Example 24.12, (2R)-2-amino-1-[4-[4-[(5-chloro-4-imidazo[1,2-a]pyridin-3-yl-pyrimidin-2-yl)amino]-3-methoxy-phenyl]piperazin-1-yl]-3-hydroxy-propan-1-one]
